Data published in US20080241834A1, “Method for improving neoadjuvant chemotherapy” (priority 2006, published 2008).

Assays:
[1] = system: breast cancer in non-carriers; assay: Response to neoadjuvant chemotherapy in matched non-carrier breast cancer patients; assay type: in vivo, human
Description: (§1) 3479 unselected incident cases of invasive breast cancer were identified at 18 different hospitals in Poland during the study period. The medical records and pathology reports were reviewed locally at the study centre in Szczecin. Information was recorded on age at diagnosis, stage, grade and lymph-node status, estrogen-receptor status, multi-centricity and bilaterality. Pathology review of tumor blocks and/or paraffin-embedded slides were requested from the corresponding pathology centres. One or more specimens were obtained from 3136 of the […] patients. A central pathology review was conducted in Szczecin by two pathologists associated with the study. Pathologists were blinded to mutation status. […] Pre-treatment tumor size was determined in all patients by a combination of clinical examination and mammography (for some patients ultrasound examinations were also performed). Post-treatment size was determined by pathology report. Lymph node status was evaluated prior to and after treatment. Pre-treatment lymph node status was evaluated with a combination of clinical exam, ultrasound and fine needle aspiration. After treatment all patients underwent axillary dissection and node status was evaluated by pathology report. […] The statistical significance of group differences was assessed using Fisher's Exact Test. […]

[2] = system: breast cancer in BRCA1 mutation carriers; assay: Response to neoadjuvant chemotherapy in breast cancer patients carrying a BRCA1 mutation; assay type: in vivo, human
Description: as §1

[3] = system: ovarian cancer; conditions: cited from earlier work
[4] = system: MCF7 cells; conditions: BRCA1 protein downregulation, premature inactivation of the spindle checkpoint; cited from earlier work
[5] = system: tumor cell lines; conditions: BRCA1 protein reconstituted into the tumor cell lines; cited from earlier work
[6] = system: breast cancer; conditions: cited from earlier work
[7] = system: lung cancer; conditions: cited from earlier work

SMILES	patients with complete or partial response, of patients treated ([1]; non-carriers)	patients who responded ([1]; non-carriers with ER-negative tumors)	patients with complete or partial response, of patients treated [2]	effectivity [3]	sensitivity to paclitaxel [4]	sensitivity to paclitaxel [5]	effectivity [6]	effectivity [7]
CC(=O)O[C@@]12CO[C@@H]1C[C@H](O)[C@@]1(C)C(=O)[C@H](O)C3=C(C)[C@@H](OC(=O)[C@H](O)[C@@H](NC(=O)OC(C)(C)C)c4ccccc4)C[C@@](O)([C@@H](OC(=O)c4ccccc4)[C@H]21)C3(C)C [docetaxel]	12 of 12	4	6 of the 15	–	–	–	–	–
CC(=O)O[C@H]1C(=O)[C@@]2(C)[C@H]([C@H](OC(=O)c3ccccc3)[C@]3(O)C[C@H](OC(=O)[C@H](O)[C@@H](NC(=O)c4ccccc4)c4ccccc4)C(C)=C1C3(C)C)[C@]1(OC(C)=O)CO[C@@H]1C[C@@H]2O [paclitaxel]	–	–	–	around 30%	insensitive	increased	~50%	~20%
